Biological target: T1, PDE5A1 (Homo sapiens, UniProt O76074)
T1 construct: from tissue; host or cells: human platelets from fresh donor blood (10,000 x g supernatant of sonicated lysate)
Experiment: Inhibition of type 5 phosphodiesterase (PDE5) activity, modified SPA test with human platelet lysate
Format: biochemical
Conditions: 0.5 μM cGMP, read-out: PDE5A1 inhibitory values [measured as −log IC50 (mol/l)] (converted)
Protocol: Method for Measuring Inhibition of the Type 5 Phosphodiesterase (PDE5) Activity:
As a source for human PDE5, platelets are used. For that purpose, 150 ml fresh blood from human donors anticoagulated with citrate [final concentration 0.3% (w/v)] is centrifuged at 200 g for 10 min to obtain the so-called platelet-rich-plasma (PRP) as a supernatant. 1/10 volume of ACD solution (85 mM Na3-citrate, 111 mM D-glucose, 71 mM citric acid, pH 4.4) is added to 9/10 volume of PRP. After centrifugation (1,400 g, 10 min) the cell pellet is resuspended in 3 ml homogenization buffer (NaCl 140 mM, KCl 3.8 mM, EGTA (ethylene glycol tetraacetic acid) 1 mM, MgCl2 1 mM, Tris-HCl 20 mM, beta-mercaptoethanol 1 mM, pH 8.2) plus protease-inhibitor mix giving rise to the final concentrations of 0.5 mM Pefablock (Roche), 10 μM Leupeptin, 5 μM Trypsininhibitor, 2 mM Benzamidin and 10 μM Pepstatin A. The suspension is sonified and thereafter centrifuged for 15 min at 10,000 g. The resulting supernatant (platelet lysate) is used for enzymatic testings.
PDE5A1 activity is inhibited by the compounds of the present subject matter in a modified SPA (scintillation proximity assay) test, supplied by Amersham Biosciences (see procedural instructions “phosphodiesterase [3H]cAMP SPA enzyme assay, code TRKQ 7090”), carried out in 96-well microtitre plates (MTP's). The test volume is 100 μl and contains 20 mM Tris buffer (pH 7.4), 0.1 mg of BSA (bovine serum albumin)/ml, 5 mM Mg^2+, 1 μM motapizone, 10 nM PDE2 inhibitor 2-(3,4-dimethoxybenzyl)-7-[(1R,2R)-2-hydroxy-1-(2-phenylethyl)propyl]-5-methylimidazo[5,1-f][1,2,4]triazin-4(3H)-one, 0.5 μM cGMP (cyclic guanosine monophosphate) (including about 50,000 cpm of [3H]cGMP as a tracer), 1 μl of the respective compound dilution in dimethylsulfoxide (DMSO) and sufficient PDE5-containing platelet lysat (10,000×g supernatant, see above) to ensure that 10-20 wt % of the cGMP is converted under the said experimental conditions. […] After a preincubation of 5 min at 37° C., the reaction is started by adding the substrate (cGMP) and the assay is incubated for a further 15 min; after that, it is stopped by adding SPA beads (50 μl). In accordance with the manufacturer's instructions, the SPA beads had previously been resuspended in water, but are then diluted 1:3 (v/v) in water; the diluted solution also contains 3 mM […] (IBMX) to ensure a complete PDE activity stop. After the beads have been sedimented (>30 min), the MTP's are analyzed in commercially available luminescence detection devices. The corresponding IC50 values of the compounds for the inhibition of PDE activity are determined from the concentration-effect curves by means of non-linear regression.

| SMILES | IC50 [nM] |
| --- | --- |
| COc1cc(OCC2CC2)c(-c2ncnc3c(C(=O)N[C@@H]4CCN(C(=O)CO)C4)c(C)[nH]c23)cc1F [Example F115, 4-[2-(Cyclopropylmethoxy)-5-fluoro-4-methoxyphenyl]-N-[(3R)-1-glycoloylpyrrolidin-3-yl]-6-methyl-5H-pyrrolo[3,2-d]pyrimidine-7-carboxamide] | < 1 |
| COc1cc(OCC2CC2)c(-c2nc(C)nc3c(C(=O)NC4CCN(C(=O)[C@H](C)O)CC4)c(C)[nH]c23)cc1F [Example F108, 4-[2-(Cyclopropylmethoxy)-5-fluoro-4-methoxyphenyl]-N-{1-[(2S)-2-hydroxypropanoyl]piperidin-4-yl}-2,6-dimethyl-5H-pyrrolo[3,2-d]pyrimidine-7-carboxamide] | < 1 |
| COCC(=O)N1CCC(NC(=O)c2c(C)[nH]c3c(-c4cc(OC)c(F)cc4OCC4CC4)nc(C)nc23)CC1 [Example E175, 4-[2-(Cyclopropylmethoxy)-4-fluoro-5-methoxyphenyl]-N-[1-(methoxyacetyl)piperidin-4-yl]-2,6-dimethyl-5H-pyrrolo[3,2-d]pyrimidine-7-carboxamide] | < 1 |
| COCC(=O)N1CC[C@@H](NC(=O)c2c(C)[nH]c3c(-c4cc(F)ccc4OCC4CC4)ncnc23)[C@H](O)C1 (relative stereo) [Example E51, 4-[2-(Cyclopropylmethoxy)-5-fluorophenyl]-N-[(3R*,4R*)-3-hydroxy-1-(methoxyacetyl)piperidin-4-yl]-6-methyl-5H-pyrrolo[3,2-d]pyrimidine-7-carboxamide] | 1 to 10 |
| COCC(=O)N[C@H]1CC[C@@H](NC(=O)c2c(C)[nH]c3c(-c4cc(C(C)C)ccc4OCC4CC4)ncnc23)CC1 [Example E162, 4-[2-(Cyclopropylmethoxy)-5-(propan-2-yl)phenyl]-N-{cis-4-[(methoxyacetyl)amino]cyclohexyl}-6-methyl-5H-pyrrolo[3,2-d]pyrimidine-7-carboxamide] | 1 to 10 |
| COc1cc(-c2ncnc3c(C(=O)N[C@@H]4CCN(C(=O)[C@H](C)O)C4)c(C)[nH]c23)c(OCC2CC2)cc1F [Example F112, 4-[2-(Cyclopropylmethoxy)-4-fluoro-5-methoxyphenyl]-N-{(3R)-1-[(2S)-2-hydroxypropanoyl]pyrrolidin-3-yl}-6-methyl-5H-pyrrolo[3,2-d]pyrimidine-7-carboxamide] | < 1 |
| COc1ccc(-c2ncnc3c(C(=O)N[C@H]4CC[C@@H](NC(C)=O)CC4)c(C)[nH]c23)c(OCC2CC2)c1 [Example E59, N-(cis-4-acetamidocyclohexyl)-4-[2-(cyclopropylmethoxy)-4-methoxyphenyl]-6-methyl-5H-pyrrolo[3,2-d]pyrimidine-7-carboxamide] | < 1 |
| CCOc1ccc(C(F)(F)F)cc1-c1ncnc2c(C(=O)NC3CCN(C(=O)CC)CC3)c(C)[nH]c12 [Example E100, 4-[2-Ethoxy-5-(trifluoromethyl)phenyl]-6-methyl-N-(1-propanoylpiperidin-4-yl)-5H-pyrrolo[3,2-d]pyrimidine-7-carboxamide] | < 1 |
| Cc1[nH]c2c(-c3ccc(F)cc3OCC3CC3)ncnc2c1C(=O)NC1CCN(C(=O)CO)CC1 [Example F11, 4-[2-(Cyclopropylmethoxy)-4-fluorophenyl]-N-(1-glycoloylpiperidin-4-yl)-6-methyl-5H-pyrrolo[3,2-d]pyrimidine-7-carboxamide] | < 1 |
| Cc1[nH]c2c(-c3c(OCC4CC4)ccc4c3OCO4)ncnc2c1C(=O)N[C@H]1CC[C@H](NC(=O)CO)CC1 [Example F3, 4-[5-(Cyclopropylmethoxy)-1,3-benzodioxol-4-yl]-N-[trans-4-(glycoloylamino)cyclohexyl]-6-methyl-5H-pyrrolo[3,2-d]pyrimidine-7-carboxamide] | < 1 |
| COc1ccc(-c2ncnc3c(C(=O)NC4CCN(C(C)=O)CC4)c(C)[nH]c23)c(OCC2CC2)c1 [Example E55, N-(1-acetylpiperidin-4-yl)-4-[2-(cyclopropylmethoxy)-4-methoxyphenyl]-6-methyl-5H-pyrrolo[3,2-d]pyrimidine-7-carboxamide] | < 1 |
| CC(=O)N[C@H]1CC[C@@H](NC(=O)c2c(C)[nH]c3c(-c4ccc(F)cc4OCC4CC4)ncnc23)CC1 [Example E25, N-(cis-4-acetamidocyclohexyl)-4-[2-(cyclopropylmethoxy)-4-fluorophenyl]-6-methyl-5H-pyrrolo[3,2-d]pyrimidine-7-carboxamide] | < 1 |
| CCC(=O)N1CCC(NC(=O)c2c(C)[nH]c3c(-c4cc(C)c(F)cc4OCC4CC4)ncnc23)CC1 [Example E120, 4-[2-(Cyclopropylmethoxy)-4-fluoro-5-methylphenyl]-6-methyl-N-(1-propanoylpiperidin-4-yl)-5H-pyrrolo[3,2-d]pyrimidine-7-carboxamide] | < 1 |
| COCC(=O)N1C[C@@H](O)[C@H](NC(=O)c2c(C)[nH]c3c(-c4cc(F)c(OC)cc4OCC4CC4)ncnc23)C1 (relative stereo) [Example E191, 4-[2-(Cyclopropylmethoxy)-5-fluoro-4-methoxyphenyl]-N-[(3R*,4R*)-4-hydroxy-1-(methoxyacetyl)pyrrolidin-3-yl]-6-methyl-5H-pyrrolo[3,2-d]pyrimidine-7-carboxamide] | < 1 |
| COc1cc(-c2ncnc3c(C(=O)N[C@H]4CC[C@@H](NC(=O)CO)CC4)c(C)[nH]c23)c(OCC2CC2)cc1F [Example F69, 4-[2-(Cyclopropylmethoxy)-4-fluoro-5-methoxyphenyl]-N-[cis-4-(glycoloylamino)cyclohexyl]-6-methyl-5H-pyrrolo[3,2-d]pyrimidine-7-carboxamide] | < 1 |
| COc1ccc(-c2ncnc3c(C(=O)N[C@@H]4CN(C(C)=O)C[C@H]4O)c(C)[nH]c23)c(OCC2CC2)c1 (relative stereo) [Example E63, N-[(3R*,4R*)-1-acetyl-4-hydroxypyrrolidin-3-yl]-4-[2-(cyclopropylmethoxy)-4-methoxyphenyl]-6-methyl-5H-pyrrolo[3,2-d]pyrimidine-7-carboxamide] | < 1 |
| Cc1[nH]c2c(-c3ccc(F)cc3OCC3CC3)ncnc2c1C(=O)NC1CCN(C(=O)[C@H](C)O)CC1 [Example F12, 4-[2-(Cyclopropylmethoxy)-4-fluorophenyl]-N-{1-[(2S)-2-hydroxypropanoyl]piperidin-4-yl}-6-methyl-5H-pyrrolo[3,2-d]pyrimidine-7-carboxamide] | < 1 |
| COCC(=O)N1CC[C@@H](NC(=O)c2c(C)[nH]c3c(-c4cc(OC)c(F)cc4OCC4CC4)ncnc23)C1 [Example E181, 4-[2-(Cyclopropylmethoxy)-4-fluoro-5-methoxyphenyl]-N-[(3R)-1-(methoxyacetyl)pyrrolidin-3-yl]-6-methyl-5H-pyrrolo[3,2-d]pyrimidine-7-carboxamide] | < 1 |
| COCC(=O)N1CCC(NC(=O)c2c(C)[nH]c3c(-c4cc(C(C)C)ccc4OCC4CC4)ncnc23)CC1 [Example E158, 4-[2-(Cyclopropylmethoxy)-5-(propan-2-yl)phenyl]-N-[1-(methoxyacetyl)piperidin-4-yl]-6-methyl-5H-pyrrolo[3,2-d]pyrimidine-7-carboxamide] | 1 to 10 |
| COc1cc(-c2ncnc3c(C(=O)NC4CCN(C(=O)[C@H](C)O)CC4)c(C)[nH]c23)c(OCC2CC2)cc1F [Example F66, 4-[2-(Cyclopropylmethoxy)-4-fluoro-5-methoxyphenyl]-N-{1-[(2S)-2-hydroxypropanoyl]piperidin-4-yl}-6-methyl-5H-pyrrolo[3,2-d]pyrimidine-7-carboxamide] | < 1 |
